Measurements reported in patent publication US20260055118A1, “VISIBLE LIGHT SENSITIVE PHOTOREMOVABLE PROTECTING GROUPS, PREPARATION PROCESS THEREOF, PHOTOACTIVATABLE CONJUGATES COMPRISING THEM AND USES THEREOF” (HUN-REN TERMÉSZETTUDOMÁNYI KUTATÓKÖZPONT, priority 2022, published 2026).

Tests used:
[1] = Uncaging quantum yield determination relative to BODIPY reference; format: physicochemical; settings: calculated from the disappearance of the target conjugate; green light irradiation
Procedure: The relative photochemical quantum yields of the uncaging reactions together with the degradation quantum yields were determined from the results of the quantitative HPLC-UV experiments. In all cases, green light irradiation was used since all target conjugates absorbed in this range as well as the reference BODIPY. The photochemical quantum yields were determined using the following equation:
[formula] • where • Φu is the photochemical quantum yield of the sample • Φu,ref is the photochemical quantum yield of the reference • k is the obtained reaction rate constant of the photoreaction of the sample • kref is the obtained reaction rate constant of the photoreaction of the reference • c is the concentration of the sample • cref is the concentration of the reference • V is the volume of the sample • Vref is the volume of the reference • a is the absorption correction factor of the sample • aref is the absorption correction factor of the reference
The absorption correction factors (a) were determined from the molar absorption coefficients and the green LED emission data obtained by the fluorimeter. […] In other words, the transmittance at each wavelength together with the emission data of the light source can be used to calculate the percentage of absorbed photons according to the following equation:
[formula] • where • T(λ) is the transmittance at each wavelength (determined from the molar absorption coefficients) • F(λ) is the LED emission at each wavelength • λmin, λmax is the LED emission range.
The rate constants of the photoreactions were determined by considering the reactions monoexponential with an initial linear phase (up to 10-20% degradation). First, the concentration vs. HPLC-UV peak were determined for each cargo moieties. […] The rate constants were determined for both the reference (with known Φu) and the sample. For reference, a commonly known BODIPY derivative was used with a similar phenylacetic acid-derived cargo unit (substrate 7 from REF^40), Φu=0.15%:
The calculated photochemical quantum yields together with uncaging cross-sections or quantum efficiencies (product of the molar absorption coefficient at a given wavelength, shown in parentheses and the photochemical quantum yield) are shown in Table 2. In the table, Φu is the photochemical quantum yield of the release; Φdeg is the photochemical quantum yield of degradation; ε×Φu is the uncaging cross-section or quantum efficiency of the release at a given wavelength in parentheses.

[2] = Spectroscopic properties of the target conjugates in PBS; format: physicochemical
Procedure: All starting materials were obtained from commercial suppliers and used without further purification. Analytical thin-layer chromatography (TLC) was performed on silica gel 60 F254 precoated aluminum TLC plates from Merck. Flash column chromatography was performed on Teledyne Isco CombiFlash® Rf+ automated flash chromatographer with silica gel (25-40 μm) from Zeochem. NMR spectra were recorded on a Varian Inova 500 MHz spectrometer. Chemical shifts (δ) are given in parts per million (ppm) using solvent signals or TMS as the reference. Coupling constants (J) are reported in Hertz (Hz). Analytical RP-HPLC-UV/Vis-MS measurements were employed using a Shimadzu LCMS-2020 instrument applying a Gemini C18 column (100×2.00 mm I.D.) in which the stationary phase is […] with a pore size of 110 Å. The chromatograms were detected by a UV-Vis diode array (190-800 nm) and an ESI-MS detector. The following linear gradient elution profile was applied, 0 min 0% B; 6.5 min 100% B; 7 min 0% B; 8 min. 0% B) with eluent A (2% HCOOH, 5% MeCN and 93% water) and B (2% HCOOH, 80% MeCN and 18% water) at a flow rate of 1.0 mL min-1 at 30° C. The samples were dissolved in MeCN—water mixtures. Spectroscopic measurements were performed on a Jasco FP 8300 spectrofluorometer. Quartz cuvettes with path length of 1 cm were used.
The spectroscopic properties of the target conjugates were determined in PBS. […] Compounds with Q=O have absorption bands in the green-yellow region while Q=CMe2 derivatives absorb in the red (up to 700 nm). All of the compounds have moderate to high absorption coefficients and significant fluorescence. The spectroscopic details can be found in Table 1. In the table, λmax means absorption maximum; λem means fluorescence emission maximum; s means molar absorption coefficient (at the absorption maximum).

CCc1c2c(nc3ccc(OC(=O)N(C)CCN(C)C(=O)OC(C)c4c5ccc(=[N+]6CCCC6)cc-5oc5cc(N6CCCC6)ccc45)cc13)-c1cc3c(c(=O)n1C2)COC(=O)C3(O)CC.[I-] (mixture of isomers) [X1′-SN38]
Φdeg, degradation quantum yield [1]: 0.15% | λem (fluorescence emission maximum) [2]: 594 nm | λmax (absorption maximum) [2]: 575 nm | ε (molar absorption coefficient) ([2]; at the absorption maximum): 61 200 M^−1cm^−1
